Laboratory results published in patent publication US10584159B2, “Renilla based biosensors for monitoring biomolecule localization and trafficking in cells” (The Royal Institution for the Advancement of …, priority 2014, dated 2020).
Starred links: 1 amine or outer side, 2 acyl side, 3 side chain; linkers in the order of their positions; H or OH if unused. Positions of bridges follow the written chain, without caps; N, C: chain ends. Non-standard residues stand in square brackets, D forms with d. Residues, ends and D or L forms follow the SMILES beside them. No end group written: not given here. *: point of attachment. Leu(3R-OH,Nα-propionyl) = CCC(=O)N[C@H](C(=O)*)[C@H](O)C(C)C; X1 = CC(C)[C@@H](O[*:3])[C@H](N[*:1])C(=O)[*:2]; NMeT = CN[C@H](C(=O)O)[C@@H](C)O; dPhLac = O=C(O)[C@H](O)Cc1ccccc1; NMeA = CN[C@@H](C)C(=O)O; NMeDha = C=C(NC)C(=O)O

Target: T1, AT1R (Homo sapiens, UniProt P30556)
T1 construct: expressed in transfected cells; host or cells: HEK293SL
T1 sequence (P30556 1-359): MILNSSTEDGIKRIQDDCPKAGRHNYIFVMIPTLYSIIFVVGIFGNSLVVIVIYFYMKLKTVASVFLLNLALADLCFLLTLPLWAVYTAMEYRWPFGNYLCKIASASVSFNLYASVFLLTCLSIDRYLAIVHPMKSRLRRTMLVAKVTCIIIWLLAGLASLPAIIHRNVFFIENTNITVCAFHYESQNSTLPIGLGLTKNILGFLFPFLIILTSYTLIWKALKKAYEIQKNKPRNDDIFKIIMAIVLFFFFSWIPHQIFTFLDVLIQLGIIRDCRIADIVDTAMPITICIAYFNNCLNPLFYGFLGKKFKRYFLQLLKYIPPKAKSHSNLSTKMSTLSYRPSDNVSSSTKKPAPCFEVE
Assay: PKN-based RhoA activation BRET assay (PKN-crib-RlucII/rGFP-CAAX) with AT1R
Assay type: cell-based
Method: BRET measurements for FIGS. 1B to 9D, 25D to 25F. The following day of transfection, cells were detached and replated onto poly-ornithine coated white 96-well plate at a density of 25,000 cells per well. The next day, cells were washed once with pre-warmed Tyrode's buffer (140 mM NaCl, 2.7 mM KCl, 1 mM CaCl2, 12 mM NaHCO3, 5.6 mM D-glucose, 0.5 mM MgCl2, 0.37 mM NaH2PO4, 25 mM HEPES, pH 7.4), and then stimulated with either various concentrations of ligands in Tyrode's buffer for the indicated time, or single concentration of ligands for various times at 37° C. For recycling experiment, after stimulating the cells with the ligands for 30 min at 37° C., they were washed either three times with ice-cold Tyrode's buffer or once with Tyrode's buffer/three times with acid (50 mM sodium citrate, pH 4.0)/two times with Tyrode's buffer. All the washing steps were performed on ice. […] The cell-permeable substrate, coelenterazine 400a was added at a final concentration of 5 μM in Tyrode's buffer 3-4 min before BRET measurements. […] The BRET signal was determined by calculating the ratio of the light intensity emitted by the GFP10 or rGFP over the light intensity emitted by the RlucII. All the BRET measurements were performed in triplicate at 37° C.
PKN-based RhoA activation assay. For FIGS. 25B-D, HEK293SL cells were grown in DMEM supplemented with 6% fetal bovine serum (FBS) and 20 μg/ml gentamycin, at 37° C. Cells were seeded at a density of 7.5×10^5 cells per 100 mm dishes and were transiently transfected the next day with constructs encoding AT1R (3 μg) along with PKN-crib-RlucII (90 ng) and rGFP-CAAX (480 ng) using calcium phosphate method as described previously. After 24 h, cells were detached and seeded onto poly-ornithine-coated 96-well white plates at a density of 25 000 cells per well in media. The next day, cells were washed once with Tyrode's buffer and left in 80 μl of Tyrode's buffer at 37° C. When indicated, cells were treated with Ubo-Qic 100 nM for 30 min or C3 toxin for 3 μg/ml (in FIG. 25I), 4 hours at 37° C. Cell stimulation and BRET measurements were done at RT. BRET signals were monitored by addition of Coel-400a to a final concentration of 5 μM using a Synergy2 (BioTek®) microplate reader. […] For FIG. 25B, a transfection mix of 200 ng of TPαR, 20 ng PKN-RlucII, 600 ng CAAX-rGFP, complemented to 2 μg with ssDNA and PEI at a ratio of PEI:DNA of 3:1, is added to 3 ml of Hek293SL (350 000 cells/ml). Cells were seeded on poly-D-lysine pretreated plates. […] Cells were stimulated for 2 min with the indicated doses of U46619. […] For FIGS. 25I and J, a transfection mix of 200 ng of TPαR, 20 ng PKN-RlucII, 600 ng CAAX-rGFP, complemented to 2 μg with ssDNA and PEI at a ratio of PEI:DNA of 3:1, is added to 3 ml of Hek293SL (350,000 cells/ml). Cells were seeded on poly-D-lysine pretreated plates. 24 h post-transfection, the Rho inhibitor (CT04; Cytoskeleton, Inc) was added when indicated, overnight at final concentration 2 μg/ml. 48 h post-transfection, cells were washed and preincubated in Tyrode +1 mM CaCl2 at 37° C. for 60 min then treated, as indicated, with 100 nM of U46619 or 1 μg/ml of Rho activator II (CN03; Cytoskeleton, Inc) for 1 min at 37° C. […] BRET was measured at 37° C., using a Tristar Microplate Reader (Berthold Technologies).

## DRVYVHPG [DVG, [Asp^1,Val^5, Gly^8]-AngII]
100 nM Ubo-Qic 30 min, ligand 4 min
  impact of Gq inhibition on ligand-mediated Rho activation: did not affect

## C=C1C(=O)N[C@@H](C)C(=O)N(C)[C@@H](C)C(=O)N[C@@H]([C@H](OC(=O)[C@@H](NC(=O)CC)[C@H](O)C(C)C)C(C)C)C(=O)N(C)[C@@H]([C@@H](C)OC)C(=O)O[C@H](C(C)C)[C@H](NC(C)=O)C(=O)O[C@H](Cc2ccccc2)C(=O)N1C [Ubo-QIC] (Ac-[X1][dPhLac][NMeDha]A[NMeA][X1](Leu(3R-OH,Nα-propionyl))[NMeT](Me); ester 1-C)
100 nM Ubo, 100 nM AngII 70 s
  effect on AngII-mediated BRET increase (Rho sensor): partially blocked
